# Laboratory results as given in ChEMBL document CHEMBL1201862, “PubChem BioAssay data set” (2004).
# The source made the active and inactive calls.
# Tests used:
# [1] = target: T1, E3 ubiquitin-protein ligase XIAP (Homo sapiens, UniProt P98170); assay: Counter Screen using XIAP-Bir3 for Chemical Antagonists of Bir1/2 domains of IAP-family anti-apoptotic proteins. [Related pubchem assays (depositor defined):AID1018, AID1449, AID1514, AID1638, AID1749, AID1750, AID488957, AID488963]
# [2] = target: T1, E3 ubiquitin-protein ligase XIAP; assay: small molecules displacing peptide from XIAP – biochemical, IAP family, fluorescence polarization (AID 1018); format: functional
# [3] = test system: A-375; assay: MITF: Counter assay: A375 proliferation Measured in Cell-Based System Using Plate Reader - 2084-03_Inhibitor_Dose_DryPowder_Activity. [Related pubchem assays (depositor defined):AID488944]; format: functional; conditions: Homo sapiens
# [4] = target: T2, Microphthalmia-associated transcription factor (Homo sapiens, UniProt O75030); assay: reducers of TRPM1 reporter luminescence, concentration series – cell-based, SK-MEL-5, cherry-picked, set 3, MITF inhibitor project, dose response (AID 493073); format: functional;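 also: SK-MEL-5 melanoma cells with luciferase driven by the MITF target TRPM1 promoter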
# T2 sequence (O75030 whole entry): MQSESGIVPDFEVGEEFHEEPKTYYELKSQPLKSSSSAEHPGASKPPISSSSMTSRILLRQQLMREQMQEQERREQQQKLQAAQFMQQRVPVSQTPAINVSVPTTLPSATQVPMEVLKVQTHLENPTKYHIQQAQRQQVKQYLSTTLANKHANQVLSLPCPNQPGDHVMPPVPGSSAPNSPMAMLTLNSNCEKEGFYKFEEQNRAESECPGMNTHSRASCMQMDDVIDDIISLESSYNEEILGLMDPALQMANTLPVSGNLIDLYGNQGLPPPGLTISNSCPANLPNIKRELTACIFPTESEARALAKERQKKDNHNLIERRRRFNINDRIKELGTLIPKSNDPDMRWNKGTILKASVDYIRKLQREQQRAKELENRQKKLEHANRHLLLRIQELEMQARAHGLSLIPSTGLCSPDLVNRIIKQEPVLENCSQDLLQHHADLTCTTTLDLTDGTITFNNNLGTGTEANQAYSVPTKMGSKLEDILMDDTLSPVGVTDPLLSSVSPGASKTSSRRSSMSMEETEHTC
# [5] = target: Integrin alpha-4 (Homo sapiens, UniProt P13612); assay: allosteric modulators of alpha4 integrin VLA-4 – cell-based, LIBS antibody binding, flow cytometry, SAR follow-up (AID 488791); format: functional
# [6] = test system: A-375; assay: proliferation inhibition in MITF-low A375 cells – cell-based, cherry-pick samples, set 2, counter-screen for MITF modulator project, dose response (AID 540335); format: functional; conditions: Homo sapiens
# [7] = test system: Vero; assay: cells; format: functional; conditions: Chlorocebus sabaeus
# [8] = luciferase reporter signal suppression in cells – H4 neuroglioma cells, luminescence, dose response (AID 1990); format: functional, cell-based
# [9] = target: T3, Hexokinase HKDC1 (Homo sapiens, UniProt Q2TB90); assay: activation of HKDC1 glucose phosphorylation – biochemical, W721R variant, dose response (AID 504730); format: functional
# T3 sequence (Q2TB90 whole entry): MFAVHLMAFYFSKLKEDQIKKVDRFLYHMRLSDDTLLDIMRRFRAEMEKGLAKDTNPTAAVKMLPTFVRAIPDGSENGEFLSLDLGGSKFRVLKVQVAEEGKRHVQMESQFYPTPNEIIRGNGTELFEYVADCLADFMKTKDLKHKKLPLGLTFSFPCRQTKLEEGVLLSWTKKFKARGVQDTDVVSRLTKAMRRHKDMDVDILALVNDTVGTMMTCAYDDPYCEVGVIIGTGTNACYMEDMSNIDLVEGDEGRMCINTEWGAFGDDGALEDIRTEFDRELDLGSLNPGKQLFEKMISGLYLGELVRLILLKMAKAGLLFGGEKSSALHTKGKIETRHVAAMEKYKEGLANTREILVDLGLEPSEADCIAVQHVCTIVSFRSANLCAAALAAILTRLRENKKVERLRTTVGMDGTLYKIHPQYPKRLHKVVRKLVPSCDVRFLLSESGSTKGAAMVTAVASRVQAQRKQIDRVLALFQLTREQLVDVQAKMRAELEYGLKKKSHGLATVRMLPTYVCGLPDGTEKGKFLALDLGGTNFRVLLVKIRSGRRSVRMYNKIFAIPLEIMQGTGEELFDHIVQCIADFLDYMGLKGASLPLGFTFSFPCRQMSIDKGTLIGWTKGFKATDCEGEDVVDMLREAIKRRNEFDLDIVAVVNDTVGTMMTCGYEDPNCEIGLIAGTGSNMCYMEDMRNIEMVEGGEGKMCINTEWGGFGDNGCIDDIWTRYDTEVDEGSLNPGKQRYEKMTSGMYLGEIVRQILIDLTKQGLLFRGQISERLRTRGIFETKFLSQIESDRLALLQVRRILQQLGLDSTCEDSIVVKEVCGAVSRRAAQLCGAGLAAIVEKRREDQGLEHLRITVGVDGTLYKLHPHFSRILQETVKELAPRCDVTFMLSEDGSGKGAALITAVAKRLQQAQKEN
# [10] = Luminescence Cell-Based Dose Response HTS to Identify Inhibitors of 5'UTR Stem-Loop Driven Prion Protein mRNA Translation in H4 Neuroglioblastoma Cells. [Related pubchem assays: 1827 (Project Summary), 1813 (Primary HTS)]; format: functional
# [11] = alpha-synuclein stem-loop luciferase translation blockers – H4 neuroglioma cells, luminescence, confirmation (AID 1988); format: functional, cell-based
# [12] = target: T4, Hexokinase-1 (Homo sapiens, UniProt P19367); assay: HK1 enzyme activation by HKDC1 hits – biochemical, selectivity assay for HKDC1 activator project, dose response (AID 504762); format: functional
# T4 sequence (P19367 whole entry): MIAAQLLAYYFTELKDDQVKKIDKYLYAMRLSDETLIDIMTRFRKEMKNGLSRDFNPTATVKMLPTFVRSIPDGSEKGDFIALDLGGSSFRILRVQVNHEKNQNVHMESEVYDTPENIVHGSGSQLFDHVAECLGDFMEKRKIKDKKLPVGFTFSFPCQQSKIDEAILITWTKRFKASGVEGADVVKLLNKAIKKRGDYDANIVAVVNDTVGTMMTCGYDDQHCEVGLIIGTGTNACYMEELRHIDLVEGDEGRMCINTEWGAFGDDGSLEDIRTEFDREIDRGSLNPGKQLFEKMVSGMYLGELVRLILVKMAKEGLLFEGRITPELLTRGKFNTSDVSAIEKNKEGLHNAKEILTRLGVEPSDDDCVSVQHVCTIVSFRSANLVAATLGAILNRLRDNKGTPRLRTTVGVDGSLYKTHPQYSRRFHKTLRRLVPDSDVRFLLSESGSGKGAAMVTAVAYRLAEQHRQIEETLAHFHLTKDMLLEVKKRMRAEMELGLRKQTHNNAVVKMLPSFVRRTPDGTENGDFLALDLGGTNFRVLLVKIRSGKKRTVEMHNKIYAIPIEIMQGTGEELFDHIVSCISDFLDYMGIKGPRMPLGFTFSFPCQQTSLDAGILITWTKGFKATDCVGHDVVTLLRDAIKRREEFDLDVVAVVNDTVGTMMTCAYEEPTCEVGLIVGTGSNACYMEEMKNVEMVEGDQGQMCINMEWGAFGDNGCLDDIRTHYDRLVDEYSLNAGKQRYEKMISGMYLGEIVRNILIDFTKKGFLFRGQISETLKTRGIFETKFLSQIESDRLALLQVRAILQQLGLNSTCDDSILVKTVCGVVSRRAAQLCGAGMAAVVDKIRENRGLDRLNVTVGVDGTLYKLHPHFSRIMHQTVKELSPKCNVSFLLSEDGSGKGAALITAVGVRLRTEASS
# [13] = target: T5, Replicative DNA helicase DnaB (Mycobacterium tuberculosis, UniProt P9WMR3); assay: DnaB intein splicing inhibitors, dose response, biochemical, cell-free fluorescence (AID 449749); format: functional
# T5 sequence (P9WMR3 whole entry): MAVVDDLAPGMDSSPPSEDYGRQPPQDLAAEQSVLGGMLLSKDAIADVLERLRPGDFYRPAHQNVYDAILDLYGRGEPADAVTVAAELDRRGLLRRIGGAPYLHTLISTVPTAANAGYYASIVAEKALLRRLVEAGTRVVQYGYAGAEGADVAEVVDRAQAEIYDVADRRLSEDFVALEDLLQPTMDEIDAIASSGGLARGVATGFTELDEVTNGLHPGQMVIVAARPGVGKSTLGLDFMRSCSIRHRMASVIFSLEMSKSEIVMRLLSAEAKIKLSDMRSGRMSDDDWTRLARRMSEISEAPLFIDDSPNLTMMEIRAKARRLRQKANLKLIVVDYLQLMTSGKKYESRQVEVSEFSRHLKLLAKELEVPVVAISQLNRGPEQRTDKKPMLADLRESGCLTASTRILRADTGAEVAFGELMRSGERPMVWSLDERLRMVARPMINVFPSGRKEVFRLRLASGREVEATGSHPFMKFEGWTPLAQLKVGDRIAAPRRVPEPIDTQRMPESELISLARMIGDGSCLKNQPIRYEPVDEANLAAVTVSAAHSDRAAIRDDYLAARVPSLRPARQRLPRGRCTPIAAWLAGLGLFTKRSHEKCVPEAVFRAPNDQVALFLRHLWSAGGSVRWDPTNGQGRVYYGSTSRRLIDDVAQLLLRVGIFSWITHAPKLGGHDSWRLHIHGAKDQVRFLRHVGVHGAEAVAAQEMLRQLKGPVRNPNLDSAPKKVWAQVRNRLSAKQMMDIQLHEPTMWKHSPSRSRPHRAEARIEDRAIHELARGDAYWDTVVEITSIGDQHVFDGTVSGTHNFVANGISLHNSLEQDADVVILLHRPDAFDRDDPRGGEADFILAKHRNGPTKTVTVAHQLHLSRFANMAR
# [14] = Intein inhibitors as potential Tuberculosis drugs, a cytotoxicity screen. [Related pubchem assays (depositor defined):AID2221, AID2223, AID434968, AID435010, AID449749, AID449750, AID489010]; format: functional
# [15] = target: Cytochrome P450 2D6 (Homo sapiens, UniProt P10635);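 also: CYP2D6 member of a cytochrome P450 panel assay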
# [16] = Luminescence Cell-Based Dose Retest to Confirm Inhibitors of Cancer Stem Cells. [Related pubchem assays (depositor defined):AID2717, AID2721]; format: functional; conditions: Homo sapiens
# [17] = target: T6, Protein RecA (Mycobacterium tuberculosis, UniProt P9WHJ3); assay: Fluorescence Cell-Free Homogeneous Dose Retest to Identify Inhibitors of RecA-Intein Splicing Activity. [Related pubchem assays (depositor defined):AID2097, AID2223, AID489010, AID492950]; format: functional
# T6 sequence (P9WHJ3 whole entry): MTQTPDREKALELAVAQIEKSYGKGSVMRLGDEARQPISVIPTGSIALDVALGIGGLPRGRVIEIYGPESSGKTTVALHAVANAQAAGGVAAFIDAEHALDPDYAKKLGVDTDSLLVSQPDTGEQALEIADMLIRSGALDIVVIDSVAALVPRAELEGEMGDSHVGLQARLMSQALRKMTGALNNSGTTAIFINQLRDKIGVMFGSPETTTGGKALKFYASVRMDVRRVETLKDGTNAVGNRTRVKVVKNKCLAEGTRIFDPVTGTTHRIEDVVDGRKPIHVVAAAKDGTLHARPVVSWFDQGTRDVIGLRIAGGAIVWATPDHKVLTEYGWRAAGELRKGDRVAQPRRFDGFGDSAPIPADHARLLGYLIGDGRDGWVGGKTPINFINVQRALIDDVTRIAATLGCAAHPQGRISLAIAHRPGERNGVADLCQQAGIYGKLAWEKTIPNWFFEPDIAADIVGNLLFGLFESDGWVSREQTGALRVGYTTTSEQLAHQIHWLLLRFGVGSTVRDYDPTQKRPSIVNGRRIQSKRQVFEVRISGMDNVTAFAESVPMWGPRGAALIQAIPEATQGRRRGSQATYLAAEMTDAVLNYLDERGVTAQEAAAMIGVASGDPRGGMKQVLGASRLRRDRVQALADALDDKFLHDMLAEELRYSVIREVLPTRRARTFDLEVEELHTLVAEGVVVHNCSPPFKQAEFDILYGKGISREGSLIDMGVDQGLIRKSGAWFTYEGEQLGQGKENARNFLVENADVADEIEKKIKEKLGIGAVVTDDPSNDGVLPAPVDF
# [18] = target: Delta-type opioid receptor (Homo sapiens, UniProt P41143); assay: SAR Analysis of Antagonists of the DOR Receptor using an Image-Based Assay - Set 3. [Related pubchem assays (depositor defined):AID1777, AID1785]; format: functional;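 also: U2OS cells expressing DOR1 and beta-arrestin GFP stimulated with 100 nM SNC80; imaging of GFP-tagged beta-arrestin moving into spots after receptor activation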
# [19] = target: T7, Kappa-type opioid receptor (Homo sapiens, UniProt P41145); assay: SAR analysis of Antagonists of the Kappa Opioid Receptor (KOR) using an Image-Based Assay - Set 3. [Related pubchem assays (depositor defined):AID1777, AID1785]; format: functional
# [20] = target: Mu-type opioid receptor (Homo sapiens, UniProt P35372); assay: SAR Analysis of Antagonists of the MOR Receptor using an Image-Based Assay - Set 3. [Related pubchem assays (depositor defined):AID1777, AID1785, AID1786, AID1966, AID2133, AID2136, AID2284, AID2285, AID2420]; format: functional
# [21] = target: T7, Kappa-type opioid receptor; assay: SAR analysis of small molecule antagonists of the kappa opioid receptor via a luminescent beta-arrestin assay - Set 3. [Related pubchem assays (depositor defined):AID1777, AID1778, AID1785, AID1786, AID1966, AID2133, AID2136, AID2285, AID2495]; format: functional
# T7 sequence (P41145 whole entry): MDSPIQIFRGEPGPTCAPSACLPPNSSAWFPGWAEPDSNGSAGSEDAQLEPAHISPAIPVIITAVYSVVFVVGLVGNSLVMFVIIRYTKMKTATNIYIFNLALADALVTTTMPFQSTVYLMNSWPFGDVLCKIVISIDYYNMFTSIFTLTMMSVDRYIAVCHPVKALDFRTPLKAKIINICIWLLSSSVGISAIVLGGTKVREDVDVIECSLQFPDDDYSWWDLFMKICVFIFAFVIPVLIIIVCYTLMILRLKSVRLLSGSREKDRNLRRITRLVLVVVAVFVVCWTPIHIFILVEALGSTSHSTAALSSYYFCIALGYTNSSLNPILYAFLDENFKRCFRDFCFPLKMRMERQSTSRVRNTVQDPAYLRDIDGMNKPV
# T1 sequence (P98170 whole entry): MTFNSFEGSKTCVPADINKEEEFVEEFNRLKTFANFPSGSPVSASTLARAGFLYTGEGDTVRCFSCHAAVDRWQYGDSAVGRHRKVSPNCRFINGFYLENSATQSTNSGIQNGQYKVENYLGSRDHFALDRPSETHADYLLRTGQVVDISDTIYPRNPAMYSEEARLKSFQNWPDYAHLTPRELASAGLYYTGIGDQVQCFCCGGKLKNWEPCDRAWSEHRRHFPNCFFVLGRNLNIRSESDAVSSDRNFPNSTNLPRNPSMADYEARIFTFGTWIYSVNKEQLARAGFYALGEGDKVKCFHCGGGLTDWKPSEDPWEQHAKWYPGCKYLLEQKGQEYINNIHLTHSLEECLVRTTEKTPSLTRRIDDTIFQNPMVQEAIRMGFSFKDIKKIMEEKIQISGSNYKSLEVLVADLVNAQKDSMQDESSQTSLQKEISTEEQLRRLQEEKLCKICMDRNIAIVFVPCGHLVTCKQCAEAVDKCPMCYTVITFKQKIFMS
# Sequence of Cytochrome P450 2D6 (P10635 whole entry): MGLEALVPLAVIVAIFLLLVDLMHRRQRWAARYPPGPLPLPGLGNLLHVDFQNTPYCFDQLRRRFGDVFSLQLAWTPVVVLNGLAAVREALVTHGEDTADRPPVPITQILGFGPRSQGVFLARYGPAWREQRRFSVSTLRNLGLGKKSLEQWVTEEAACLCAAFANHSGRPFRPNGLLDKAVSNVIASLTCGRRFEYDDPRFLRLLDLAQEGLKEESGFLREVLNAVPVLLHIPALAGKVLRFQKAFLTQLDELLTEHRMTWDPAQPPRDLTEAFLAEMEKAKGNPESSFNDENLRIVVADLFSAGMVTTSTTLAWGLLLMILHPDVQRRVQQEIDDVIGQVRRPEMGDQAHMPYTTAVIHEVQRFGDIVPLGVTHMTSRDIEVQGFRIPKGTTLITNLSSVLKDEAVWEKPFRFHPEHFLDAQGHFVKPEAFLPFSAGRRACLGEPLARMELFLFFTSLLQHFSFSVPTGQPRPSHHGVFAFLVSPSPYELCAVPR
# Sequence of Integrin alpha-4 (P13612 whole entry): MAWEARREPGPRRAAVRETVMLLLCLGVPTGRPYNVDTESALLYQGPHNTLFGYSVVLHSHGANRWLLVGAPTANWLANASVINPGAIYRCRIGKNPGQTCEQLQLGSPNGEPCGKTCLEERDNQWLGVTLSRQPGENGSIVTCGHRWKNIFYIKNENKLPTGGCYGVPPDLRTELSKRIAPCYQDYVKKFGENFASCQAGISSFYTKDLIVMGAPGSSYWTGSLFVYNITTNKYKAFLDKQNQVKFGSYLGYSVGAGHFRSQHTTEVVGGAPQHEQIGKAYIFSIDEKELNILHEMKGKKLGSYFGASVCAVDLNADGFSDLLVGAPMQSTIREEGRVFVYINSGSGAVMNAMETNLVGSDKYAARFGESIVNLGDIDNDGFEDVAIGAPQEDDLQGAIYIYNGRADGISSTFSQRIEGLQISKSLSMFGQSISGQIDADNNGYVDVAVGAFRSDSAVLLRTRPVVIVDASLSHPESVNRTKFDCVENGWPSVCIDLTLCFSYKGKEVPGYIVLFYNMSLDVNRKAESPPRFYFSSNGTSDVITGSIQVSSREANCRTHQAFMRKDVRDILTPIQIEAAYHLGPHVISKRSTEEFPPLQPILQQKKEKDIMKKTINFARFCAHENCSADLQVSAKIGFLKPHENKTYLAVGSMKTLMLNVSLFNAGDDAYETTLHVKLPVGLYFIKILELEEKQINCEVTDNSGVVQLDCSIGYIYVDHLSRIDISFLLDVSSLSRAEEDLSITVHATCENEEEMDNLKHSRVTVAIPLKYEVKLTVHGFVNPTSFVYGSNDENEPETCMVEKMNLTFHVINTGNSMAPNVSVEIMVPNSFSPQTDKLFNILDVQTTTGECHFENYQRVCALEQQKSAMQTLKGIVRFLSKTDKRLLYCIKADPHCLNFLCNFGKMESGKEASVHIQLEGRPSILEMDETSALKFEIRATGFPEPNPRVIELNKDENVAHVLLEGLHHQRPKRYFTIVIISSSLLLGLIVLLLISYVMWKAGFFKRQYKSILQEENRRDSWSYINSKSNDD
# Sequence of Mu-type opioid receptor (P35372 whole entry): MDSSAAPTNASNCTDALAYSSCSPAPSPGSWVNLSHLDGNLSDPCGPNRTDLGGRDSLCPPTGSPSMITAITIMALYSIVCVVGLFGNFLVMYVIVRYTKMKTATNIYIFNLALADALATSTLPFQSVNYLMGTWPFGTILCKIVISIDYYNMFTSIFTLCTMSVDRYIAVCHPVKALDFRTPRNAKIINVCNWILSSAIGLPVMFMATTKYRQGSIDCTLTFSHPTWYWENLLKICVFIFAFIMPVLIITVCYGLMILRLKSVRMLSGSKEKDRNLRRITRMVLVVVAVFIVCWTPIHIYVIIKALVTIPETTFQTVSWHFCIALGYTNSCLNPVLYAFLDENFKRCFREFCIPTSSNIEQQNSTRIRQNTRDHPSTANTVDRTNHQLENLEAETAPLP
# Sequence of Delta-type opioid receptor (P41143 whole entry): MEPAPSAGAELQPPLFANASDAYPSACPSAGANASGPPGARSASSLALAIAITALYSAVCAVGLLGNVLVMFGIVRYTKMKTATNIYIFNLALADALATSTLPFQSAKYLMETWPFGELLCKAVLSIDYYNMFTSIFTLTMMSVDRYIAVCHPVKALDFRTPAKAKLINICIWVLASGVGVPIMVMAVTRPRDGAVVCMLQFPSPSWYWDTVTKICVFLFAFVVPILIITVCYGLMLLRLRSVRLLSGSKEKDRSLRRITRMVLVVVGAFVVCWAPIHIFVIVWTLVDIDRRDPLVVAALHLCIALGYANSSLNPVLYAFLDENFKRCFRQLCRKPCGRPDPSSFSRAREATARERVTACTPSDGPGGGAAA
smiles,measurement,setting,value
CCOC(=O)C1(CCCc2ccccc2)CCN(C(=O)C2=C(C)OCCO2)CC1,IC50,[1],> 100 µM (inactive)
same,IC50,[2],> 100 µM (not active)
CCOCCCNC(=O)/C(C#N)=C/c1ccc(Cl)c([N+](=O)[O-])c1,AC50,[3],> 35 µM (active)
same,AC50,[4],7.38 µM (active)
same,EC50,[5],> 90.8 µM (inactive)
same,AC50,[6],> 35 µM (active)
same,CC50,[7],> 25 µM (active)
COc1cc(OC)cc(C(=O)NC(=S)NNC(=O)c2cnccn2)c1,EC50,[8],> 120 µM (not active)
same,EC50,[9],11.5 µM (active)
same,EC50,[10],11.5 µM (active)
same,EC50,[11],10.2 µM (active)
same,EC50,[12],> 80 µM (inactive)
CC(C)CCn1c(N)c(C(=O)NCc2cccs2)c2nc3ccccc3nc21,AC50,[13],4.01 µM (active)
same,CC50,[14],> 40 µM (active)
same,AC50,[15],8.91 µM (inconclusive)
same,AC50,[16],3.46 µM (active)
same,EC50,[17],3.04 µM (active)
CCc1ccc(S(=O)(=O)NCc2ccc(C(=O)NCCN(Cc3ccccc3)C(C)CC)cc2)cc1 (stereo unspecified),IC50,[18],> 32 µM (inactive)
same,IC50,[19],0.47 µM (active)
same,IC50,[20],> 32 µM (inactive)
same,IC50,[21],1.42 µM (active)
